According to publication PMC12677699, “Utilizing Proteolytic‐Resistant Nano‐Short Peptide Based on Naphthyl Tail‐Anchored to Combat Bacterial Infections” (Advanced Science, 2025):
Values after ≈ are worked out from the molar mass of the structure shown. Non-standard residues stand in square brackets, D forms with d. Residues, ends and D or L forms follow the SMILES beside them. ξ: configuration not given here. *: point of attachment. Palmitoyl = CCCCCCCCCCCCCCCC(=O)*; Myristoyl = CCCCCCCCCCCCCC(=O)*; Lauroyl = CCCCCCCCCCCC(=O)*; Decanoyl = CCCCCCCCCC(=O)*; ξAhp(2) = CCCCCC(N)C(=O)O

Columns and labels:
P. aeruginosa PAO1 = format: cell-based, Pseudomonas aeruginosa
Experimental: (§1) The MIC values of the nano‐short peptides were determined according to standard protocols.^[ [63] ^] Bacterial strains were revived from cryopreservation and cultured in Mueller–Hinton broth (MHB) to logarithmic growth phase, then diluted to a final density of 0.5–1 × 10⁶ CFU mL^−1. Serial dilutions of the nano‐short peptides were prepared in 0.2% bovine serum albumin (BSA) using a 96‐well plate format. Equal volumes of peptide solutions and bacterial suspensions were combined and incubated at 37 °C for 20–22 h. Bacterial growth was assessed by measuring absorbance at 492 nm, with MHB alone (negative control) and untreated bacterial suspension (positive control) included for reference.

P. aeruginosa 27853 = format: cell-based, Pseudomonas aeruginosa
Experimental: as §1

S. typhimurium 14028 = format: cell-based, Salmonella typhimurium
Experimental: as §1

S. typhimurium 7731 = format: cell-based, Salmonella typhimurium
Experimental: as §1

S. aureus 29213 = format: cell-based, Staphylococcus aureus
Experimental: as §1

S. aureus 25923 = format: cell-based, Staphylococcus aureus
Experimental: as §1

S. pullorum C7913 = format: cell-based
Experimental: as §1

S. epidermidis 12228 = format: cell-based, Staphylococcus epidermidis
Experimental: as §1

E. coli 078 = format: cell-based, Escherichia coli
Experimental: as §1

E. coli 25922 = format: cell-based, Escherichia coli
Experimental: as §1

E. coli UB1005 = format: cell-based, Escherichia coli
Experimental: as §1

MRSA 43300 = format: cell-based, Methicillin-Resistant Staphylococcus aureus
Experimental: as §1

E. faecalis 29212 = format: cell-based, Enterococcus faecalis
Experimental: as §1

| SMILES | MIC, P. aeruginosa PAO1 (P. aeruginosa PAO1) [µM] | MIC, P. aeruginosa 27853 (P. aeruginosa 27853) [µM] | MIC, S. typhimurium 14028 (S. typhimurium 14028) [µM] | MIC, S. typhimurium 7731 (S. typhimurium 7731) [µM] | MIC, S. aureus 29213 (S. aureus 29213) [µM] | MIC, S. aureus 25923 (S. aureus 25923) [µM] | MIC, S. pullorum C7913 (S. pullorum C7913) [µM] | MIC, S. epidermidis 12228 (S. epidermidis 12228) [µM] | MIC, E. coli 078 (E. coli 078) [µM] | MIC, E. coli 25922 (E. coli 25922) [µM] | MIC, E. coli UB1005 (E. coli UB1005) [µM] | MIC, MRSA 43300 (MRSA 43300) [µM] | MIC, E. faecalis 29212 (E. faecalis 29212) [µM] |
| --- | --- | --- | --- | --- | --- | --- | --- | --- | --- | --- | --- | --- | --- |
| C[C@H](N)C(=O)N[C@@H](C)C(=O)N[C@@H](C)C(=O)N[C@@H](C)C(=O)N[C@H](CCCNC(=N)N)C(=O)N[C@@H](CCCNC(=N)N)C(=O)N[C@@H](CCCNC(=N)N)C(=O)N1CCC[C@H]1C(=O)O [Peptide A4] (H-AAAA[dR]RRP-OH) | 256 (≈ 222 µg/mL) | 256 (≈ 222 µg/mL) | 256 (≈ 222 µg/mL) | 256 (≈ 222 µg/mL) | 256 (≈ 222 µg/mL) | 256 (≈ 222 µg/mL) | 256 (≈ 222 µg/mL) | 256 (≈ 222 µg/mL) | 256 (≈ 222 µg/mL) | 256 (≈ 222 µg/mL) | 256 (≈ 222 µg/mL) | 256 (≈ 222 µg/mL) | 256 (≈ 222 µg/mL) |
| C[C@H](N)C(=O)N[C@@H](C)C(=O)N[C@@H](C)C(=O)N[C@@H](C)C(=O)N[C@@H](C)C(=O)N[C@H](CCCNC(=N)N)C(=O)N[C@@H](CCCNC(=N)N)C(=O)N[C@@H](CCCNC(=N)N)C(=O)N1CCC[C@H]1C(=O)O [Peptide A5] (H-AAAAA[dR]RRP-OH) | 256 (≈ 240 µg/mL) | 256 (≈ 240 µg/mL) | 256 (≈ 240 µg/mL) | 256 (≈ 240 µg/mL) | 256 (≈ 240 µg/mL) | 256 (≈ 240 µg/mL) | 256 (≈ 240 µg/mL) | 256 (≈ 240 µg/mL) | 256 (≈ 240 µg/mL) | 256 (≈ 240 µg/mL) | 256 (≈ 240 µg/mL) | 256 (≈ 240 µg/mL) | 256 (≈ 240 µg/mL) |
| C[C@H](N)C(=O)N[C@@H](C)C(=O)N[C@@H](C)C(=O)N[C@@H](C)C(=O)N[C@@H](C)C(=O)N[C@@H](C)C(=O)N[C@H](CCCNC(=N)N)C(=O)N[C@@H](CCCNC(=N)N)C(=O)N[C@@H](CCCNC(=N)N)C(=O)N1CCC[C@H]1C(=O)O [Peptide A6] (H-AAAAAA[dR]RRP-OH) | 256 (≈ 259 µg/mL) | 256 (≈ 259 µg/mL) | 256 (≈ 259 µg/mL) | 256 (≈ 259 µg/mL) | 256 (≈ 259 µg/mL) | 256 (≈ 259 µg/mL) | 256 (≈ 259 µg/mL) | 256 (≈ 259 µg/mL) | 256 (≈ 259 µg/mL) | 256 (≈ 259 µg/mL) | 256 (≈ 259 µg/mL) | 256 (≈ 259 µg/mL) | 256 (≈ 259 µg/mL) |
| CCCCCC(N)C(=O)NC(CCCCC)C(=O)NC(CCCCC)C(=O)N[C@H](CCCNC(=N)N)C(=O)N[C@@H](CCCNC(=N)N)C(=O)N[C@@H](CCCNC(=N)N)C(=O)N1CCC[C@H]1C(=O)O (some centres unmarked) [Peptide B3] (H-[ξAhp(2)][ξAhp(2)][ξAhp(2)][dR]RRP-OH; N-terminus assumed) | 256 (≈ 247 µg/mL) | 256 (≈ 247 µg/mL) | 256 (≈ 247 µg/mL) | 256 (≈ 247 µg/mL) | 256 (≈ 247 µg/mL) | 256 (≈ 247 µg/mL) | 256 (≈ 247 µg/mL) | 256 (≈ 247 µg/mL) | 256 (≈ 247 µg/mL) | 256 (≈ 247 µg/mL) | 256 (≈ 247 µg/mL) | 256 (≈ 247 µg/mL) | 256 (≈ 247 µg/mL) |
| CCCCCCCCCC(=O)N[C@H](CCCNC(=N)N)C(=O)N[C@@H](CCCNC(=N)N)C(=O)N[C@@H](CCCNC(=N)N)C(=O)N1CCC[C@H]1C(=O)O [Peptide C10] (Decanoyl-[dR]RRP-OH) | 256 (≈ 189 µg/mL) | 256 (≈ 189 µg/mL) | 256 (≈ 189 µg/mL) | 256 (≈ 189 µg/mL) | 256 (≈ 189 µg/mL) | 256 (≈ 189 µg/mL) | 256 (≈ 189 µg/mL) | 128 (≈ 94.5 µg/mL) | 256 (≈ 189 µg/mL) | 256 (≈ 189 µg/mL) | 256 (≈ 189 µg/mL) | 128 (≈ 94.5 µg/mL) | 256 (≈ 189 µg/mL) |
| CCCCCCCCCCCC(=O)N[C@H](CCCNC(=N)N)C(=O)N[C@@H](CCCNC(=N)N)C(=O)N[C@@H](CCCNC(=N)N)C(=O)N1CCC[C@H]1C(=O)O [Peptide C12] (Lauroyl-[dR]RRP-OH) | 64 (≈ 49 µg/mL) | 128 (≈ 98 µg/mL) | 128 (≈ 98 µg/mL) | 128 (≈ 98 µg/mL) | 64 (≈ 49 µg/mL) | 64 (≈ 49 µg/mL) | 128 (≈ 98 µg/mL) | 64 (≈ 49 µg/mL) | 128 (≈ 98 µg/mL) | 128 (≈ 98 µg/mL) | 256 (≈ 196 µg/mL) | 32 (≈ 24.5 µg/mL) | 64 (≈ 49 µg/mL) |
| CCCCCCCCCCCCCC(=O)N[C@H](CCCNC(=N)N)C(=O)N[C@@H](CCCNC(=N)N)C(=O)N[C@@H](CCCNC(=N)N)C(=O)N1CCC[C@H]1C(=O)O [Peptide C14] (Myristoyl-[dR]RRP-OH) | 32 (≈ 25.4 µg/mL) | 64 (≈ 50.8 µg/mL) | 128 (≈ 102 µg/mL) | 64 (≈ 50.8 µg/mL) | 32 (≈ 25.4 µg/mL) | 32 (≈ 25.4 µg/mL) | 64 (≈ 50.8 µg/mL) | 32 (≈ 25.4 µg/mL) | 64 (≈ 50.8 µg/mL) | 64 (≈ 50.8 µg/mL) | 128 (≈ 102 µg/mL) | 16 (≈ 12.7 µg/mL) | 32 (≈ 25.4 µg/mL) |
| CCCCCCCCCCCCCCCC(=O)N[C@H](CCCNC(=N)N)C(=O)N[C@@H](CCCNC(=N)N)C(=O)N[C@@H](CCCNC(=N)N)C(=O)N1CCC[C@H]1C(=O)O [Peptide C16] (Palmitoyl-[dR]RRP-OH) | 32 (≈ 26.3 µg/mL) | – | – | – | 32 (≈ 26.3 µg/mL) | 32 (≈ 26.3 µg/mL) | 256 (≈ 210 µg/mL) | 32 (≈ 26.3 µg/mL) | – | – | – | 32 (≈ 26.3 µg/mL) | 32 (≈ 26.3 µg/mL) |
